According to patent publication US11155517B2, “4-substituted phenylamine derivatives and their use to protect crops by fighting undesired phytopathogenic micoorganisms” (PI INDUSTRIES LTD., priority 2016, dated 2021):

Key:
Botrytis cinerea = Botrytis cinerea (gray mold) in vitro test, radial growth on Potato Dextrose Agar; type: cell-based
Alternaria solani = Alternaria solani (early blight of tomato/potato) in vitro test, radial growth on Potato Dextrose Agar; type: cell-based
Rhizoctonia solani = Rhizoctonia solani (rice sheath blight/potato black scurf) in vitro test, radial growth on Potato Dextrose Agar; type: cell-based
Pyricularia oryzae = test: microbe, parasite or virus in culture; type: cell-based
Septoria lycopersici = Septoria lycopersici (leaf spot of tomato) in vitro test, radial growth on Potato Dextrose Agar; type: cell-based; details: 168 h, seven days, 25° C., read-out: % control compared to the untreated check (radial growth)
Fusarium culmorum [1] = test: Fusarium culmorum (foot rot of cereals) in vitro test, radial growth on Potato Dextrose Agar; type: cell-based; details: Fusarium culmorum
Botrytis cinera = test: Greenhouse Botrytis cinera test in tomato, preventive; type: in vivo; details: 24 h, plants sprayed one day before inoculation, read-out: Efficacy (% control), disease severity vs untreated check
Colletotrichum capsici = Colletotrichum capsici (anthracnose) in vitro test, radial growth on Potato Dextrose Agar; type: cell-based; details: Colletotrichum truncatum
Fusarium culmorum [2] = test: Greenhouse Fusarium culmorum test in wheat, preventive; type: in vivo; details: 24 h, read-out: Efficacy (% control), disease severity vs untreated check
Method in brief: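 Young greenhouse wheat sprayed preventively at stated rates (compounds in 2% DMSO/acetone, diluted in water), inoculated one day later with 2×10^6 Fusarium culmorum spores in 2% malt, held at 24 °C, 80-90% RH. Disease severity (0-100%) rated 3, 7, 10 and 15 days after application; % control versus untreated, phytotoxicity also recorded.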

Corynespora cassicola = test: Table 3 comparative % inhibition, Corynespora cassicola (CORYCA); type: cell-based; details: Table 3 comparison
[3] = 168 h, 300 ppm, seven days, 25° C., read-out: % control compared to the untreated check (radial growth)
[4] = 168 h, read-out: % control compared to the untreated check (radial growth)

## CCN(C)C=Nc1cc(C)c(Cc2ccccc2)cc1C [Compound 1, N′-(4-benzyl-2,5-dimethylphenyl)-N-ethyl-N-methylformimidamide]
Botrytis cinerea; 168 h, 300 ppm, seven days, 22° C., read-out: % (control) compared to the untreated check (radial growth)
  inhibition of growth at 300 ppm: > 80%
Botrytis cinerea; Dose 300 ppm, Table 3 comparison, read-out: BOTRCI % inhibition
  inhibition at 300 ppm: 100%
Alternaria solani; [3]
  inhibition of growth at 300 ppm: > 75%
Alternaria solani; Dose 300 ppm, Table 3 comparison, read-out: ALTESO % inhibition
  inhibition at 300 ppm: 100%
Rhizoctonia solani; [3]
  inhibition of growth at 300 ppm: > 80%
Rhizoctonia solani; Dose 300 ppm, Table 3 comparison, read-out: RHIZSO % inhibition
  inhibition at 300 ppm: 100%
Pyricularia oryzae; [4]
  inhibition of growth at 300 ppm: > 75%
Pyricularia oryzae; read-out: PYRIOR % inhibition
  inhibition at 300 ppm: 100%
Septoria lycopersici
  inhibition of growth at 300 ppm: > 70%
Fusarium culmorum [1]; [4]
  inhibition of growth at 300 ppm: 75%
Fusarium culmorum [1]; Dose 300 ppm, Table 3 comparison, read-out: FUSACU % inhibition
  inhibition at 300 ppm: 100%
Botrytis cinera
  pest or weed control at 500 ppm: 70 to 100%
Colletotrichum capsici; [3]
  inhibition of growth at 300 ppm: > 80%
Colletotrichum capsici; Dose 300 ppm, Table 3 comparison, read-out: COLLCA % inhibition
  inhibition at 300 ppm: 100%
Fusarium culmorum [2]
  pest or weed control at 500 ppm: 70 to 100%
Corynespora cassicola
  inhibition at 300 ppm: 100%
